Experimental data taken from the NIST ThermoML archive (doi:10.1016/j.jct.2012.03.031).

Assay: molar heat capacity at constant pressure
Conditions: 101.33 kPa

CCCCc1ccc(C(=O)Oc2ccc(C#N)c(F)c2)cc1 [4-cyano-3-fluorophenyl 4-butylbenzoate]
Conditions	molar heat capacity at constant pressure [J/K/mol]
221.07 K, Crystal 2, Small (less than 1 g) adiabatic calorimetry	311.55
221.65 K, Crystal 1, Small (less than 1 g) adiabatic calorimetry	297.64
222.84 K, Crystal 1, Small (less than 1 g) adiabatic calorimetry	299.23
223.8 K, Crystal 2, Small (less than 1 g) adiabatic calorimetry	314.36
223.83 K, Crystal 1, Small (less than 1 g) adiabatic calorimetry	300.59
224.03 K, Crystal 1, Small (less than 1 g) adiabatic calorimetry	300.76
225.22 K, Crystal 1, Small (less than 1 g) adiabatic calorimetry	302.28
226.41 K, Crystal 1, Small (less than 1 g) adiabatic calorimetry	303.96
226.54 K, Crystal 2, Small (less than 1 g) adiabatic calorimetry	317.16
226.65 K, Crystal 1, Small (less than 1 g) adiabatic calorimetry	304.49
227.59 K, Crystal 1, Small (less than 1 g) adiabatic calorimetry	305.68
228.77 K, Crystal 1, Small (less than 1 g) adiabatic calorimetry	307.52
229.29 K, Crystal 2, Small (less than 1 g) adiabatic calorimetry	320.04
229.47 K, Crystal 1, Small (less than 1 g) adiabatic calorimetry	308.62
229.94 K, Crystal 1, Small (less than 1 g) adiabatic calorimetry	309.12
230 K, Crystal 1, Vacuum adiabatic calorimetry	309.39
230 K, Crystal 2, Vacuum adiabatic calorimetry	320.68
231.12 K, Crystal 1, Small (less than 1 g) adiabatic calorimetry	310.59
232.06 K, Crystal 2, Small (less than 1 g) adiabatic calorimetry	322.55
232.28 K, Crystal 1, Small (less than 1 g) adiabatic calorimetry	312.29
232.3 K, Crystal 1, Small (less than 1 g) adiabatic calorimetry	312.7
233.45 K, Crystal 1, Small (less than 1 g) adiabatic calorimetry	313.85
234.61 K, Crystal 1, Small (less than 1 g) adiabatic calorimetry	315.48
234.84 K, Crystal 2, Small (less than 1 g) adiabatic calorimetry	325.57
235.14 K, Crystal 1, Small (less than 1 g) adiabatic calorimetry	316.89
235.77 K, Crystal 1, Small (less than 1 g) adiabatic calorimetry	317.02
236.93 K, Crystal 1, Small (less than 1 g) adiabatic calorimetry	318.75
237.63 K, Crystal 2, Small (less than 1 g) adiabatic calorimetry	328.79
238.05 K, Crystal 1, Small (less than 1 g) adiabatic calorimetry	321.4
238.08 K, Crystal 1, Small (less than 1 g) adiabatic calorimetry	320.42
239.23 K, Crystal 1, Small (less than 1 g) adiabatic calorimetry	322.04
240 K, Crystal 1, Vacuum adiabatic calorimetry	324.53
240 K, Crystal 2, Vacuum adiabatic calorimetry	332.29
240.38 K, Crystal 1, Small (less than 1 g) adiabatic calorimetry	323.67
240.43 K, Crystal 2, Small (less than 1 g) adiabatic calorimetry	332.92
241.04 K, Crystal 1, Small (less than 1 g) adiabatic calorimetry	326.21
241.52 K, Crystal 1, Small (less than 1 g) adiabatic calorimetry	325.48
242.66 K, Crystal 1, Small (less than 1 g) adiabatic calorimetry	327.48
243.24 K, Crystal 2, Small (less than 1 g) adiabatic calorimetry	336.05
243.8 K, Crystal 1, Small (less than 1 g) adiabatic calorimetry	328.63
244.07 K, Crystal 1, Small (less than 1 g) adiabatic calorimetry	330.21
246.07 K, Crystal 1, Small (less than 1 g) adiabatic calorimetry	331.47
247.13 K, Crystal 1, Small (less than 1 g) adiabatic calorimetry	334.86
247.2 K, Crystal 1, Small (less than 1 g) adiabatic calorimetry	333.06
248.33 K, Crystal 1, Small (less than 1 g) adiabatic calorimetry	334.82
249.45 K, Crystal 1, Small (less than 1 g) adiabatic calorimetry	336.63
250 K, Crystal 1, Vacuum adiabatic calorimetry	339.52
250.22 K, Crystal 1, Small (less than 1 g) adiabatic calorimetry	339.88
250.57 K, Crystal 1, Small (less than 1 g) adiabatic calorimetry	338.23
251.69 K, Crystal 1, Small (less than 1 g) adiabatic calorimetry	339.75
252.81 K, Crystal 1, Small (less than 1 g) adiabatic calorimetry	341.78
253.35 K, Crystal 1, Small (less than 1 g) adiabatic calorimetry	344.81
253.92 K, Crystal 1, Small (less than 1 g) adiabatic calorimetry	343.44
255.03 K, Crystal 1, Small (less than 1 g) adiabatic calorimetry	345.42
256.14 K, Crystal 1, Small (less than 1 g) adiabatic calorimetry	347.42
256.51 K, Crystal 1, Small (less than 1 g) adiabatic calorimetry	349.77
257.24 K, Crystal 1, Small (less than 1 g) adiabatic calorimetry	349.12
258.34 K, Crystal 1, Small (less than 1 g) adiabatic calorimetry	350.75
259.44 K, Crystal 1, Small (less than 1 g) adiabatic calorimetry	352.9
259.7 K, Crystal 1, Small (less than 1 g) adiabatic calorimetry	354.86
260 K, Crystal 1, Vacuum adiabatic calorimetry	355.31
260.54 K, Crystal 1, Small (less than 1 g) adiabatic calorimetry	354.79
261.63 K, Crystal 1, Small (less than 1 g) adiabatic calorimetry	356.59
262.72 K, Crystal 1, Small (less than 1 g) adiabatic calorimetry	358.59
262.92 K, Crystal 1, Small (less than 1 g) adiabatic calorimetry	359.67
263.8 K, Crystal 1, Small (less than 1 g) adiabatic calorimetry	360.46
264.89 K, Crystal 1, Small (less than 1 g) adiabatic calorimetry	362.63
265.96 K, Crystal 1, Small (less than 1 g) adiabatic calorimetry	364.99
266.18 K, Crystal 1, Small (less than 1 g) adiabatic calorimetry	364.4
267.04 K, Crystal 1, Small (less than 1 g) adiabatic calorimetry	367.18
268.11 K, Crystal 1, Small (less than 1 g) adiabatic calorimetry	369.24
269.18 K, Crystal 1, Small (less than 1 g) adiabatic calorimetry	371.72
269.46 K, Crystal 1, Small (less than 1 g) adiabatic calorimetry	369.89
270 K, Crystal 1, Vacuum adiabatic calorimetry	371.52
270.25 K, Crystal 1, Small (less than 1 g) adiabatic calorimetry	373.77
271.31 K, Crystal 1, Small (less than 1 g) adiabatic calorimetry	375.16
272.37 K, Crystal 1, Small (less than 1 g) adiabatic calorimetry	378.43
272.76 K, Crystal 1, Small (less than 1 g) adiabatic calorimetry	379.8
273.42 K, Crystal 1, Small (less than 1 g) adiabatic calorimetry	380.54
274.47 K, Crystal 1, Small (less than 1 g) adiabatic calorimetry	383.84
275.53 K, Crystal 1, Small (less than 1 g) adiabatic calorimetry	385.34
276.08 K, Crystal 1, Small (less than 1 g) adiabatic calorimetry	388.45
276.58 K, Crystal 1, Small (less than 1 g) adiabatic calorimetry	389.76
277.62 K, Crystal 1, Small (less than 1 g) adiabatic calorimetry	392.5
278.67 K, Crystal 1, Small (less than 1 g) adiabatic calorimetry	396.43
279.42 K, Crystal 1, Small (less than 1 g) adiabatic calorimetry	397.42
279.7 K, Crystal 1, Small (less than 1 g) adiabatic calorimetry	398.5
280 K, Crystal 1, Vacuum adiabatic calorimetry	397.19
281.47 K, Crystal 1, Small (less than 1 g) adiabatic calorimetry	402.8
282.22 K, Crystal 1, Small (less than 1 g) adiabatic calorimetry	405.47
282.99 K, Crystal 1, Small (less than 1 g) adiabatic calorimetry	408.97
283.75 K, Crystal 1, Small (less than 1 g) adiabatic calorimetry	414.38
284.5 K, Crystal 1, Small (less than 1 g) adiabatic calorimetry	422.32
285.25 K, Crystal 1, Small (less than 1 g) adiabatic calorimetry	436.88
285.98 K, Crystal 1, Small (less than 1 g) adiabatic calorimetry	474.25

Liquid
Conditions	molar heat capacity at constant pressure [J/K/mol]
289.24 K, Small (less than 1 g) adiabatic calorimetry	479.05
289.97 K, Small (less than 1 g) adiabatic calorimetry	476.93
290 K, Vacuum adiabatic calorimetry	473.62
290.7 K, Small (less than 1 g) adiabatic calorimetry	476.25
291.67 K, Small (less than 1 g) adiabatic calorimetry	476.45
291.8 K, Small (less than 1 g) adiabatic calorimetry	475.34
293.12 K, Small (less than 1 g) adiabatic calorimetry	477.07
294.48 K, Small (less than 1 g) adiabatic calorimetry	476.74
295.04 K, Small (less than 1 g) adiabatic calorimetry	477.7
297.17 K, Small (less than 1 g) adiabatic calorimetry	477.75
297.43 K, Small (less than 1 g) adiabatic calorimetry	478.84
298.15 K, Vacuum adiabatic calorimetry	478.16
299.87 K, Small (less than 1 g) adiabatic calorimetry	478.89
300 K, Vacuum adiabatic calorimetry	478.96
302.6 K, Small (less than 1 g) adiabatic calorimetry	480.42
305.34 K, Small (less than 1 g) adiabatic calorimetry	481.47
308.1 K, Small (less than 1 g) adiabatic calorimetry	482.84
310 K, Vacuum adiabatic calorimetry	483.98
310.87 K, Small (less than 1 g) adiabatic calorimetry	484.5
313.66 K, Small (less than 1 g) adiabatic calorimetry	486.08
316.47 K, Small (less than 1 g) adiabatic calorimetry	487.53
319.29 K, Small (less than 1 g) adiabatic calorimetry	489.61
320 K, Vacuum adiabatic calorimetry	490.09
322.13 K, Small (less than 1 g) adiabatic calorimetry	491.52
324.98 K, Small (less than 1 g) adiabatic calorimetry	493.16
327.85 K, Small (less than 1 g) adiabatic calorimetry	495.06
330 K, Vacuum adiabatic calorimetry	496.49
330.74 K, Small (less than 1 g) adiabatic calorimetry	496.98
333.64 K, Small (less than 1 g) adiabatic calorimetry	498.96
336.55 K, Small (less than 1 g) adiabatic calorimetry	500.86
339.48 K, Small (less than 1 g) adiabatic calorimetry	502.59
340 K, Vacuum adiabatic calorimetry	502.96
342.43 K, Small (less than 1 g) adiabatic calorimetry	504.71
345.39 K, Small (less than 1 g) adiabatic calorimetry	506.48
348.36 K, Small (less than 1 g) adiabatic calorimetry	508.66
350 K, Vacuum adiabatic calorimetry	509.84
351.35 K, Small (less than 1 g) adiabatic calorimetry	510.81
354.35 K, Small (less than 1 g) adiabatic calorimetry	513
357.37 K, Small (less than 1 g) adiabatic calorimetry	514.97
360.4 K, Small (less than 1 g) adiabatic calorimetry	517.24
